In patent US20240051931A1, “HDAC INHIBITORS” (University of Pittsburgh - Of the Commonwealth System of …, priority 2020, published 2024):

In the case of `C#Cc1ccc2c(c1)CCC(C(=O)NO)O2` (stereo not shown) [Compound 19, 6-ethynyl-N-hydroxychromane-2-carboxamide], the melting point is reported as 161 to 163 °C. For `O=C(NO)C1CCc2cc(C#CCOc3ccc(F)cc3)ccc2O1` (stereo not shown) [Compound 25, 6-(3-(4-Fluorophenoxy)prop-1-yn-1-yl)-N-hydroxychromane-2-carboxamide], the melting point was 149 to 151 °C. With `O=C(NO)C1CCc2cc(CCCOc3ccc(F)cc3)ccc2O1` (stereo not shown) [Compound 31, 6-(3-(4-Fluorophenoxy)propyl)-N-hydroxychromane-2-carboxamide] the melting point was 145 to 147 °C. Molecule `O=C(NO)C1CCc2cc(C#CCOC(=O)N3CCc4ccccc4C3)ccc2O1` (stereo not shown) [Compound 36, 3-(2-(Hydroxycarbamoyl)chroman-6-yl)prop-2-yn-1-yl 3,4-dihydroisoquinoline-2(1H)-carboxylate] has a melting point of 90 to 92 °C. Molecule `O=C(NO)C1CCc2cc(CCCOC(=O)N3CCc4ccccc4C3)ccc2O1` (stereo not shown) [Compound 40, 3-(2-(Hydroxycarbamoyl)chroman-6-yl)propyl 3,4-dihydroisoquinoline-2(1H)-carboxylate] has a melting point of 82 to 84 °C. `O=C(NO)C1CCc2cc(-c3ccc(-c4ccccc4)cc3)ccc2O1` (stereo not shown) [Compound 44a, 6-([1,1′-Biphenyl]-4-yl)-N-hydroxychromane-2-carboxamide] gave a melting point of 218 to 219 °C. Molecule `O=C(NO)C1CCc2cc(-c3ccc(F)cc3)ccc2O1` (stereo not shown) [Compound 44b, 6-(4-Fluorophenyl)-N-hydroxychromane-2-carboxamide] has a melting point of 177 to 179 °C. With `O=C(NO)C1CCc2cc(-c3ccc(Cl)c(Cl)c3)ccc2O1` (stereo not shown) [Compound 44c, 6-(3,4-Dichlorophenyl)-N-hydroxychromane-2-carboxamide] the melting point was 89 to 91 °C. In the case of `O=C(NO)C1CCc2ccc(OCc3ccc(C(F)(F)F)cc3)cc2O1` (stereo not shown) [Compound 50a, N-Hydroxy-7-((4-(trifluoromethyl)benzyl)oxy)chromane-2-carboxamide], the melting point is reported as 148 to 151 °C. `O=C(NO)C1CCc2ccc(OCCOc3ccc(F)cc3)cc2O1` (stereo not shown) [Compound 50b, 7-(2-(4-Fluorophenoxy)ethoxy)-N-hydroxychromane-2-carboxamide] gave a melting point of 144 to 147 °C. `O=C(NO)C1CCc2ccc(OCc3ccccn3)cc2O1` (stereo not shown) [Compound 50c, N-Hydroxy-7-(pyridin-2-ylmethoxy)chromane-2-carboxamide] showed a melting point of 125 to 128 °C. With `O=C(NO)[C@@H]1CCc2ccc(OCc3ccccc3Cl)cc2O1` [Compound 50d, (S)-7-((2-Chlorobenzyl)oxy)-N-hydroxychromane-2-carboxamide] the melting point was 141 to 147 °C. `O=C(NO)C1CCc2ccc(O)cc2O1` (stereo not shown) [Compound 55, N,7-Dihydroxychromane-2-carboxamide] showed a melting point of 174 to 176 °C. Molecule `O=C(NO)C1CCc2ccc(-c3ccc(Cl)c(Cl)c3)cc2O1` (stereo not shown) [Compound 58a, 7-(3,4-Dichlorophenyl)-N-hydroxychromane-2-carboxamide] has a melting point of 167 to 169 °C. `Cn1ccc2cc(-c3ccc4c(c3)OC(C(=O)NO)CC4)ccc21` (stereo not shown) [Compound 58b, N-Hydroxy-7-(1-methyl-1H-indol-5-yl)chromane-2-carboxamide] showed a melting point of 155 to 158 °C. Molecule `COc1ccc(-c2ccc3c(c2)OC(C(=O)NO)CC3)cc1` (stereo not shown) [Compound 58c, N-Hydroxy-7-(4-methoxyphenyl)chromane-2-carboxamide] has a melting point of 181 to 183 °C. In the case of `CN1CC(C(=O)NO)Oc2ccccc21` (stereo not shown) [Compound 78, N-Hydroxy-4-methyl-3,4-dihydro-2H-benzo[b][1,4]oxazine-2-carboxamide], the melting point is reported as 118 to 120 °C. `O=C(NO)C1CCc2cc(Cl)ccc2O1` (stereo not shown) [Compound 90, 6-Chloro-N-hydroxychromane-2-carboxamide] showed a melting point of 160 to 162 °C. `O=C(Nc1cccc2c1O[C@H](C(=O)NO)CC2)OCc1ccccc1Cl` [−11L, 2-Chlorobenzyl (S)-(2-(hydroxycarbamoyl)chroman-8-yl)carbamate] showed a melting point of 176 to 178 °C.
